Bounds are passed on as bounds.

Six molecules from ChEMBL document CHEMBL5523673, “Progress in the controllability technology of PROTAC” (Eur J Med Chem, 2024) can be followed below.

Data set [1] addresses Protein cereblon/Bromodomain-containing protein 4 (Homo sapiens) (UniProt O60885+Q96SW2). Put plainly: PROTAC activity at CRBN/BRD4 in human NAMALVA cells assessed as maximal degradation at 1 uM incubated for 30 mins by Western blot analysis relative to control. The data set is classed as cell-based.
The target of data set [2] is T1, von Hippel-Lindau disease tumor suppressor/Bromodomain-containing protein 4 (Homo sapiens, UniProt O60885+P40337). Put plainly: PROTAC activity at human VHL/BRD4 in human HeLa cells assessed as maximal degradation of BRD4 incubated for 24 hrs by Western blot analysis relative to control. The data set is classed as cell-based.
Data set [3] can be described thus: Antiproliferative activity against human HK-2 cells assessed as reduction in cell viability incubated for 72 hrs by CCK-8 assay. The data set is classed as toxicity, cell-based.
A further data set deals with OVCAR-8. Put plainly: Antiproliferative activity against human OVCAR-8 cells assessed as reduction in cell viability incubated for 72 hrs by CCK-8 assay. The following applies: OVCAR-8, 72 h. The data set is classed as functional, cell-based.
The test system of another data set is T47D. Put plainly: Antiproliferative activity against human T47D cells assessed as reduction in cell viability incubated for 72 hrs by CCK-8 assay. It is filed as functional, cell-based.
Data set [4] in a line: Antiproliferative activity against mouse 3T3 cells assessed as reduction in cell viability incubated for 72 hrs by CCK-8 assay. The data set is classed as toxicity, cell-based. The following applies: NIH3T3 cells.
Data set [5] in a line: Antiproliferative activity against human HFF-1 cells assessed as reduction in cell viability incubated for 72 hrs by CCK-8 assay. The data set is classed as toxicity, cell-based.
Data set [6] deals with Epidermal growth factor receptor (Homo sapiens, UniProt P00533). Put plainly: Inhibition of EGFR (unknown origin).
Data set [7] relates to MCF7. Put plainly: Antiproliferative activity against human MCF7 cells assessed as reduction in cell viability incubated for 72 hrs by CellTiter-Glo luminescent assay. The data set is classed as functional, cell-based. The following applies: MCF7, 72 h.
Data set [8] deals with T1, von Hippel-Lindau disease tumor suppressor/Bromodomain-containing protein 4. Put plainly: PROTAC activity at VHL/BRD4 in human MCF7 cells assessed as induction of BRD4 degradation incubated for 18 hrs by Western blotting analysis. It is filed as cell-based.
For data set [9] the target is unchanged. Put plainly: PROTAC activity at human VHL/BRD4 in human MCF7 cells assessed as maximum degradation of BRD4 measured after 18 hrs by Western blot analysis relative to control. It is filed as cell-based.
For data set [10], the system named is MCF7. Put plainly: Cytotoxicity against human MCF7 cells assessed as reduction in cell growth incubated for 72 hrs by CellTiter-Glo luminescent assay. The following applies: MCF7, 72 h. It is filed as functional, cell-based.

T1 sequence (P40337 whole entry, looked up, other chains not shown): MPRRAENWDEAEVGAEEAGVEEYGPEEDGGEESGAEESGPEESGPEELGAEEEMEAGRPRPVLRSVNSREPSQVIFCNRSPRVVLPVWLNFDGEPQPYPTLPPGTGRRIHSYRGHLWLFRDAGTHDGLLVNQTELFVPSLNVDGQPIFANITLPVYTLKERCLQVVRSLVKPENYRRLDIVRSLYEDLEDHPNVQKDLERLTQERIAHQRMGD
Sequence of Protein cereblon/Bromodomain-containing protein 4 (Homo sapiens) (Q96SW2 whole entry, looked up, other chains not shown): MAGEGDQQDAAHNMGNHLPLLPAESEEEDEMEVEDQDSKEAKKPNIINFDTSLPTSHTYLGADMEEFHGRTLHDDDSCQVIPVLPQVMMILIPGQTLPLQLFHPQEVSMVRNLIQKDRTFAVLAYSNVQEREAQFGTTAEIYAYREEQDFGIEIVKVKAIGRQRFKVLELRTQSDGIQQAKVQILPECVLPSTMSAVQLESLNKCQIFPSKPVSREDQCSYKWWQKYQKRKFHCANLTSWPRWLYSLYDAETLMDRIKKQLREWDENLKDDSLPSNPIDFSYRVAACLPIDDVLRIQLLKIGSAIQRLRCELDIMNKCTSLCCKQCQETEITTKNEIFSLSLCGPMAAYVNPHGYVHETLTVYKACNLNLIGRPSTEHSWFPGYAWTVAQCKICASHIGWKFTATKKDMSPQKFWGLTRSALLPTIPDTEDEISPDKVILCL
Sequence of Epidermal growth factor receptor (P00533 whole entry): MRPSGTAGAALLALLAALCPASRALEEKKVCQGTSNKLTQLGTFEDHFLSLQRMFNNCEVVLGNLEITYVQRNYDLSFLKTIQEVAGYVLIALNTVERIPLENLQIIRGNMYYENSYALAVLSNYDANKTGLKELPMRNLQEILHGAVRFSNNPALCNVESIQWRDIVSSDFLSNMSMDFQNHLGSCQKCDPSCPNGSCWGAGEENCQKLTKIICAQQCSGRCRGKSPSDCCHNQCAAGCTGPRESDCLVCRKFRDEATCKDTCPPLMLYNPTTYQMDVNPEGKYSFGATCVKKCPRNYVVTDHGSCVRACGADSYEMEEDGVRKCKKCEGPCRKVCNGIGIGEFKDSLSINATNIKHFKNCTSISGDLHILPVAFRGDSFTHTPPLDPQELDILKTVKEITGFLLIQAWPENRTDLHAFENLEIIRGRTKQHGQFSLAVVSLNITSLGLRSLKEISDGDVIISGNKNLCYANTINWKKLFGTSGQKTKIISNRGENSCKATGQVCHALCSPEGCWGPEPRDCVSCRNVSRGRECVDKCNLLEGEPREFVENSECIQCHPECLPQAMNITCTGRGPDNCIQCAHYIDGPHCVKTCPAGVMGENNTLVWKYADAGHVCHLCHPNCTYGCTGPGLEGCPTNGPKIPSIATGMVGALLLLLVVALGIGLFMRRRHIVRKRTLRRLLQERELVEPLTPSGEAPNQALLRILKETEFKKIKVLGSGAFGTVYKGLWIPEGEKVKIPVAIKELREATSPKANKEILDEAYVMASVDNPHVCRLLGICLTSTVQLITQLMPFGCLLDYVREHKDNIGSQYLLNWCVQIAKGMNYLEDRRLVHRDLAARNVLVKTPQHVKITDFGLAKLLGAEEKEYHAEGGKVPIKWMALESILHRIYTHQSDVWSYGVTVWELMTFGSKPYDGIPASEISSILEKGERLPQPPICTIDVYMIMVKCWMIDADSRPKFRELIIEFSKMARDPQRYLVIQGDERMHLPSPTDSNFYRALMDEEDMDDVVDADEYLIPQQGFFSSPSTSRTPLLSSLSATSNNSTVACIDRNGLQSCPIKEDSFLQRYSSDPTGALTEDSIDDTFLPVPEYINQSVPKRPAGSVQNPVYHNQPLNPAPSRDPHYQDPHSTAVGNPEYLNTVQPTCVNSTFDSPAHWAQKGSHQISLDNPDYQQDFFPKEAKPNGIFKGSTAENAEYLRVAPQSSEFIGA

In the case of `COc1cc(CN(CCCCNC(=O)COc2cccc3c2C(=O)N(C2CCC(=O)NC2=O)C3=O)C(=O)CC2N=C(c3ccc(Cl)cc3)c3c(sc(C)c3C)-n3c(C)nnc32)c([N+](=O)[O-])cc1OC` (stereo not drawn), the Emax in data set [1] is 93%.
As to `Cc1ncsc1-c1ccc([C@H](C)NC(=O)[C@@H]2C[C@@H](OC(=O)Cc3ccc(B4OC(C)(C)C(C)(C)O4)cc3)CN2C(=O)[C@@H](NC(=O)COCCCOCCNC(=O)C[C@@H]2N=C(c3ccc(Cl)cc3)c3c(sc(C)c3C)-n3c(C)nnc32)C(C)(C)C)cc1`, the maximum response (Emax) in data set [2] amounted to 70%.
As for `Cc1ncsc1-c1ccc([C@H](C)NC(=O)[C@@H]2C[C@@H](OC(=O)CCCCn3cc(CNC(=O)CC[C@H](NC(=O)c4ccc(NCc5cnc6nc(N)[nH]c(=O)c6n5)cc4)C(=O)O)nn3)CN2C(=O)[C@@H](NC(=O)COCCCOCCNC(=O)C[C@@H]2N=C(c3ccc(Cl)cc3)c3c(sc(C)c3C)-n3c(C)nnc32)C(C)(C)C)cc1`, the IC50 at 72 h in data set [3] is 2100 nM; in data set [4], 1400 nM; in [5] it was more than 10000 nM. Also, the results for the 50% inhibitory concentration (IC50) in the data set with OVCAR-8 and in the data set on T47D were 297 nM and 18 nM, respectively.
`COc1cc2ncnc(N(Cc3ccc([N+](=O)[O-])cc3)c3ccc(F)c(Cl)c3)c2cc1OCCOCCOCCOCCC(=O)Nc1cccc2c1CN(C1CCC(=O)NC1=O)C2=O` (stereo not drawn) gave a half-maximal inhibitory concentration (IC50) in data set [6] of 3560 nM.
Take `Cc1ncsc1-c1ccc([C@H](C)NC(=O)[C@@H]2C[C@@H](O)CN2C(=O)[C@@H](NC(=O)COCCCOCCNC(=O)C[C@@H]2N=C(c3ccc(Cl)cc3)c3c(sc(C)c3C)-n3c(C)nnc32)C(C)(C)C)cc1`: the half-maximal inhibitory concentration (IC50) amounted to 120 nM with MCF7 [7], 215 nM in the data set on OVCAR-8 and 13 nM with T47D. Also, the IC50 at 72 h in data set [3] came out at 160 nM; in [4] it was 210 nM; in data set [5], 1100 nM.
With `Cc1sc2c(c1C)C(c1ccc(Cl)cc1)=N[C@@H](CC(=O)NCCCCCN(Cc1ccc(B(O)O)cc1)c1cccc3c1CN(C1CCC(=O)NC1=O)C3=O)c1nnc(C)n1-2` (stereo partly drawn), the 50% degradation concentration (DC50) in data set [8] is 31.2 nM. Further, the maximal effect (Emax) in [9] was 77.5%. The concentration for half-maximal inhibition (IC50) in the data set on MCF7 [7] was found to be 122 nM; in the data set on MCF7 [10], 1020 nM.
